Measurements from patent US8957108B2, “Use of 5,6-dimethylxanthenone-4-acetic acid as an antiviral agent” (University of Maryland, Baltimore, priority 2006, dated 2015).

What was measured:
IRF-3 = experiment: Native-PAGE and Western blotting for IRF-3 dimers; type: cell-based, mouse; conditions: macrophages pretreated with SA
Description: Rabbit anti-mouse IκBα phospho-specific Ab (pAb) was purchased from Santa Cruz Biotechnology, Inc. (Santa Cruz, Calif.). Rabbit anti-mouse MAPK pAb and rabbit anti-human phospho-IRF-3 pAb antibodies were purchased from Cell Signaling (Danvers, Mass.). Rabbit anti-mouse IRF-3 pAb was purchased from Zymed (South San Francisco, Calif.). Native-PAGE for the detection of IRF-3 dimers was carried out as described in Iwamura, T. et al. (2001) “Induction Of IRF-3/-7 Kinase And NF-kappaB in Response To Double-Stranded RNA And Virus Infection: Common And Unique Pathways,” Genes and Cells 6:375-388. Briefly, thioglycollate-elicited peritoneal macrophages were lysed following stimulation with either LPS or DMXAA as indicated. […] Membranes were probed with a 1:250 dilution of rabbit anti-mouse IRF-3 for 1 h at room temperature. Goat anti-rabbit IgG-HRP (Cell Signaling Technologies, Danvers, Mass.) at a 1:2000 dilution was used as the secondary Ab. Blots were developed with ECL Plus (Amersham Biosciences, Piscataway, N.J.).

peritoneal macrophages = experiment: Quantitative real-time PCR of cytokine mRNA in murine peritoneal macrophages
MEFs = experiment: RANTES protein in MEF supernatants; type: cell-based, mouse; conditions: MAVS+/+ and MAVS−/− MEFs, 24 h
Description: IFN-β protein in cell culture supernatants was measured using a custom ELISA originally described in Weinstein, S. L. et al. (2000) “Phosphatidylinositol 3-Kinase And mTOR Mediate Lipopolysaccharide-Stimulated Nitric Oxide Production In Macrophages Via Interferon-Beta,” J. Leukocyte Biol. 67:405-414, with few modifications. […] Plates were blocked with 10% FCS in 1×PBS for 2 h at room temperature. Samples and a murine IFN-β standard (NIH, Bethesda, Md.) were added to wells and incubated overnight at 4° C. […] Wells were washed 3× followed by incubation with a 1:2000 dilution of goat anti-rabbit HRP (Cell Signaling Technologies, Beverly, Mass.) in 10% FCS-PBS for 1 h at room temperature. Plates were washed 3× and developed with TMB substrate (KPL, Gaithersburg, Md.). The reaction was stopped by addition of 1N H2SO4, and plates were read at 450 nm. RANTES and TNF-α were quantified using Luminex bead-based colorimetric assays. […] For stimulation of cells, poly(I:C) was mixed with Fugene 6 transfection reagent (Roche) at a ratio of 1:1 (volume:weight) in OptiMEM medium and incubated for 15 min prior to stimulation. Culture supernatants of cells (2×10^4) seeded on 96-well plates were collected after 24 h stimulation and analyzed for RANTES levels with ELISA. ELISA was performed according to the manufacturer's instructions (R&D Systems).

[1] = peritoneal macrophages pretreated with SA

Row | Compound | IRF-3 dimer formation and phosphorylation of serine 396 in response to DMXAA (IRF-3) | effect on DMXAA-induced IFN-β expression (peritoneal macrophages; [1]) | effect on LPS-induced IFN-β mRNA expression (peritoneal macrophages; [1]) | RANTES response in MAVS-deficient MEFs (MEFs) | TNF-α mRNA in the absence of TLR4 (peritoneal macrophages; TLR4−/− peritoneal macrophages, 2 h)
1 | O=C(O)c1ccccc1O [SA, salicylic acid, reference compound] | inhibits | dramatically reduces | essentially unaffected |  | 
2 | poly I:C [reference compound] |  |  |  | completely abrogates | induces TNF-α to wild-type levels
